Laboratory results as given in patent US5281628A, “9-amino-7-(substituted)-6-demethyl-6-deoxytetracyclines” (American Cyanamid Company, priority 1991, dated 1994).
Structures can show the parent of a compound that is named as a salt.

Experiments:
Type in all cases: cell-based
[1] = test system: S. marcescens FPOR 87-33; experiment: MIC, microtiter broth dilution; details: Serratia marcescens, FPOR8733, 18 h
Description: (§1) The minimum inhibitory concentration (MIC), the lowest concentration of the antibiotic which inhibits growth of the test organism, is determined by the microtiter broth dilution method using 0.1 ml Muller-Hinton II broth (Baltimore Biological Laboratories) per well. A suitable oxygen scavenger (i.e., cysteine or dithiothreitol) is added to the assay medium for the testing of compounds according to Formula I because of the sensitivity of those compounds to oxidation. An inoculum level of 1-5×10^5 CFU/ml and a range of antibiotic concentrations (32 0.004 μg/ml) are used.

[2] = test system: S. aureus IVES 1983 (methicillin-resistant); experiment: MIC, microtiter broth dilution; details: Staphylococcus aureus, 18 h
Description: as §1

[3] = test system: E. coli UBMS 89-2 (tetracycline-sensitive); experiment: MIC, microtiter broth dilution; details: Escherichia coli, 18 h
Description: as §1

[4] = test system: M. morganii NEMC 87-119; experiment: MIC, microtiter broth dilution; details: Morganella morganii, NEMC87119, 18 h
Description: as §1

[5] = test system: S. aureus IVES 2943 (methicillin-resistant); experiment: MIC, microtiter broth dilution; details: Staphylococcus aureus, 18 h
Description: as §1

[6] = test system: E. coli ATCC 25922; experiment: MIC, microtiter broth dilution; details: Escherichia coli, ATCC25922, 18 h
Description: as §1

[7] = test system: E. coli UBMS 90-5 (tetracycline-sensitive); experiment: MIC, microtiter broth dilution; details: Escherichia coli, 18 h
Description: as §1

[8] = test system: S. aureus UBMS 90-3 (tetracycline-sensitive); experiment: MIC, microtiter broth dilution; details: Staphylococcus aureus, 18 h
Description: as §1

[9] = test system: S. haemolyticus AVAH 88-3; experiment: MIC, microtiter broth dilution; details: Staphylococcus haemolyticus, AVAH883, 18 h; S. haemolyticus AVAH 88-3; in the presence of cysteine (0.05%); read-out: MIC
Description: as §1

[10] = test system: P. aeruginosa ATCC 27853; experiment: MIC, microtiter broth dilution; details: Pseudomonas aeruginosa, ATCC27853, 18 h
Description: as §1

[11] = test system: E. faecalis ATCC 29212; experiment: MIC, microtiter broth dilution; details: Enterococcus faecalis, ATCC29212, 18 h
Description: as §1

[12] = test system: tetracycline sensitive and resistant Gram-positive and Gram-negative bacteria; experiment: In vitro antibacterial evaluation, statements on the whole panel
Description: as §1

[13] = test system: E. coli UBMS 88-1 (tetB); experiment: microbe, parasite or virus in culture; details: Escherichia coli, 18 h
Description: as §1

[14] = test system: S. aureus UBMS 88-5 (tetM); experiment: microbe, parasite or virus in culture; details: Staphylococcus aureus, 18 h
Description: as §1

[15] = test system: S. aureus UBMS 88-7 (tetK); experiment: microbe, parasite or virus in culture; details: Staphylococcus aureus, 18 h
Description: as §1

[16] = test system: S. aureus ATCC 29213; experiment: MIC, microtiter broth dilution; details: Staphylococcus aureus, ATCC29213, 18 h, no cysteine stated
Description: as §1

[17] = test system: E. coli UBMS 88-2 (tetracycline-sensitive); experiment: MIC, microtiter broth dilution; details: Escherichia coli, 18 h, no cysteine stated
Description: as §1

[18] = test system: E. coli UBMS 90-4 (tetM); experiment: MIC, microtiter broth dilution; details: Escherichia coli, 18 h
Description: as §1

[19] = test system: S. aureus UBMS 88-4 (tetracycline-sensitive); experiment: MIC, microtiter broth dilution; details: Staphylococcus aureus, 18 h, no cysteine stated
Description: as §1

[20] = test system: X. maltophilia FPOR 87-210; experiment: MIC, microtiter broth dilution; details: Stenotrophomonas maltophilia, FPOR87210, 18 h, no cysteine stated
Description: as §1

[21] = in the presence of cysteine (0.05%)

CCN(CC)c1cc(N)c(O)c2c1C[C@H]1C[C@H]3[C@H](N(C)C)C(O)=C(C(N)=O)C(=O)[C@@]3(O)C(O)=C1C2=O [C, 9-Amino-7-(diethylamino)-6-demethyl-6-deoxytetracycline sulfate]
MIC [1, 21]: 4 µg/mL
MIC [2, 21]: 0.25 µg/mL
MIC [3, 21]: 0.5 µg/mL
MIC [4, 21]: 2 µg/mL
MIC [5, 21]: 0.25 µg/mL
MIC [6, 21]: 0.5 µg/mL
MIC [7, 21]: 1 µg/mL
MIC [8, 21]: 0.03 µg/mL
MIC [9]: 0.12 µg/mL
MIC [10, 21]: 8 µg/mL
MIC [11, 21]: 0.12 µg/mL
antibacterial activity versus D ([12]; comparator D): enhancement of antibacterial activity

CCN(CC)c1ccc(O)c2c1C[C@H]1C[C@H]3[C@H](N(C)C)C(O)=C(C(N)=O)C(=O)[C@@]3(O)C(O)=C1C2=O [D, 7-(Diethylamino)-6-demethyl-6-deoxytetracycline sulfate]
MIC [13]: 32 µg/mL
MIC [14]: 16 µg/mL
MIC [15]: 0.12 µg/mL
MIC ([1]; no cysteine stated): 32 µg/mL
MIC [16]: < 0.015 µg/mL
MIC ([2]; no cysteine stated): 8 µg/mL
MIC [17]: 2 µg/mL
MIC [18]: > 32 µg/mL
MIC ([3]; no cysteine stated): 4 µg/mL
MIC ([4]; no cysteine stated): 32 µg/mL
MIC ([5]; no cysteine stated): 8 µg/mL
MIC ([6]; no cysteine stated): 1 µg/mL
MIC [19]: 0.03 µg/mL
MIC ([7]; no cysteine stated): 2 µg/mL
MIC [20]: 0.25 µg/mL
MIC ([8]; no cysteine stated): 0.03 µg/mL
MIC ([10]; no cysteine stated): 32 µg/mL
MIC ([11]; no cysteine stated): 8 µg/mL
Antibacterial potency in the presence of cysteine ([12]; in the presence of cysteine versus without): not enhanced
